Data on 1 molecule can be found in patent US20260240820A1, “METHOD FOR CONTROLLING MEMBRANE POTENTIAL-DEPENDENT ION CHANNEL THROUGH TYPE I TASTE RECEPTORS (T1RS)” (ION CHAT RESEARCH CORPORATE, priority 2022, published 2026).

Structures are written as SMILES. Entries after “also recorded” stand apart in the source; their conditions may differ. Where two headings read alike, the source gives them in different places.

Test [1] deals with HEK Nav1.5 cells. In words: GFP-Tubulin / GFP-Actin cytoskeleton observation in HEK Nav1.5 cells. In kind it is cell-based, human. The conditions noted are these: MSG 5 mM.
In test [2] the test system is Kv1.2. Briefly: Patch-clamp recording of Kv1.2 potassium current in HEK cells expressing Kv1.2. In kind it is cell-based, human. On the procedure: The effects of Aβ peptides or umami substances on sustained potassium currents (VGKC) in cardiac myocytes can be studied using HEK cells expressing VGKC (such as Kv1.2, Kv3.2, Kv3.3) as well as SH-SY5Y cells expressing endogenous T1R GPCRs. For instance, as shown in the implementation example in (FIG. 36B), Aβ peptides were applied to VGKC-expressing human cultured cells, and VGKC currents were recorded using ramp-like or rectangular voltage waveforms via the patch-clamp technique. This allowed measurement of the changes (inhibition) in VGKC currents caused by Aβ peptides. Similar inhibition studies on VGKC can be conducted using umami substance L-glutamate sodium (MSG) (FIG. 36A).
As shown in (FIG. 37), Aβ1-42 peptide, unlike Aβ25-35 targeting T1R3, interacts with T1R1 and inhibits VGSC currents (FIGS. 37D, E).
(In general: The patch-clamp technique gives a direct electrical read-out from membranes.)

The subject of test [3] is Nav1.5 in T1R1-silenced HEK cells. Briefly: VGSC current in HEK Nav1.5 cells with silenced T1R1. In kind it is cell-based, human. The conditions noted are these: 5 mM for MSG2.5.
The subject of test [4] is voltage-dependent potassium channel current of SH-SY5Y cells. In words: Voltage clamp recording of outward potassium current in SH-SY5Y cells. It counts as cell-based, human. The conditions noted are these: 5 mM. From the text: The inward current represents the transient peak observed immediately after stimulation, while the outward current measures the average value during the last 50 ms of rectangular pulse stimulation.

Test [5] has as its system VGSC. In words: Patch-clamp recording of VGSC current, cell type not specified or several cell types (summary statements). It counts as cell-based, human.
Test [6] concerns VGSC of SH-SY5Y cells (Nav1.7, Nav1.2, Nav1.3). In words: Patch-clamp recording of VGSC current in differentiated SH-SY5Y cells. In kind it is cell-based, human. The conditions noted are these: 5 mM.
For test [7], the system named is Nav1.5. Briefly: Patch-clamp (voltage clamp) recording of VGSC current in HEK cells stably expressing Nav1.5.

Consider `N[C@@H](CCC(=O)O)C(=O)[O-].[Na+]` [MSG, monosodium glutamate], for which, in test [1], the “Microtubule fibrous structure (GFP-Tubulin)” value is reported as “disappearance of microtubule-like structures; also recorded: microtubule structure disappeared”. Besides, the “Effect on voltage gated K+ channel (Kv1.2) current” value in test [2] is “Inhibition of Voltage gated”. The “Effect on VGSC currents in T1R1-silenced cells” value in test [3] is given as “MSG had no effect on VGSC enhancement in T1R1 silenced cells”. In addition, the “Effect on outward potassium current” value in test [4] is given as “reduces the voltage-dependent potassium channel current; also recorded: decrease in outward currents”. In addition, the “Effect on VGSC inactivation” value in test [5] is “delays the inactivation of VGSC”. The results for the “Effects on VGSCs” value in test [5] and in test [5] (listed as L-Glu (MSG)) were “Transient enhancement of VGSC; also recorded: Left shift of the I-V curve” and “Delay in VGSC inactivation”, respectively. Further, in test [5] (5 mM), the “VGSC I-V curve” value is reported as 5 mM MSG shifts the VGSC I-V curve to a more hyperpolarized direction. The “Delay of VGSC inactivation” value in test [5] (10 mM) was “This delaying effect even more evident at 10 mM MSG”. Besides, in test [5] (VGSC inhibited by more than 80% by dichlorprop), the “Inactivation curve of VGSC shifted by dichlorprop” value is “partially recovered”. The “Suppression / leftward S-S shift of VGSC caused by artificial sweeteners” value in test [5] (cells pre-treated with aspartame or saccharin) is given as “partially reversed”. The “Inactivation of VGSC current” value in test [6] is reported as “delayed; also recorded: The inactivation speed of VGSC slows in 2 out of 3 SH-SY5Y cells”. Also, in test [7] (5 mM), the “Inactivation process of transient VGSC current” value is recorded as “significantly delayed; also recorded: This delay in inactivation speed more pronounced in Nav1.5 cells”. In test [7] (10 mM, after CK2 inhibitor TBB), the “VGSC current suppressed by TBB” value is listed as “partially recovered from TBB suppression”. Also, the “S-S curve shifted by TBB” value in test [7] (after TBB) is recorded as “partially reversed the leftward shift caused by TBB”.
